{"source": "ChEMBL document CHEMBL1140202", "about": "“A novel cell-penetrating peptide sequence derived by structural minimization of a snake toxin exhibits preferential nucleolar localization” (J Med Chem, 2008)", "key": {"HeLa [1]": {"test_system": "HeLa", "assay": "Cellular uptake in human HeLa cells assessed as drug translocation through nucleolar membrane by time-lapsed confocal microscopy", "type": "ADME, cell-based"}, "HeLa [2]": {"test_system": "HeLa", "assay": "Toxicity against human HeLa cells upto 100 uM after 24 hrs by MTT assay", "type": "cell-based"}, "HeLa [3]": {"test_system": "HeLa", "assay": "Drug penetration in human HeLa cells at 15 to 50 uM by time-lapsed confocal microscopy relative to control", "type": "ADME, cell-based"}}, "note": "Where a SMILES comes first, the peptide text is derived from it. [ ]: non-standard residue; d: D form. Ahx = NCCCCCC(=O)O", "data": [{"molecule": "NCCCC[C@H](NC(=O)CCCCCNC(=O)CNC(=O)CNC(=O)[C@H](CCCCN)NC(=O)[C@H](CCCCN)NC(=O)[C@H](Cc1cnc[nH]1)NC(=O)[C@H](CS)NC(=O)[C@H](CCC(N)=O)NC(=O)[C@H](CCCCN)NC(=O)[C@@H](N)Cc1ccc(O)cc1)C(=O)N[C@@H](CCCCN)C(=O)NCC(=O)N[C@@H](CO)C(=O)NCC(=O)O", "note": "(H-YKQCHKKGG[Ahx]KKGSG-OH)", "values": [{"measurement": "Activity", "setting": "HeLa [1]", "result": "Dose-dependent effect and tde"}, {"measurement": "Activity", "setting": "HeLa [2]", "result": "Non-toxic"}, {"measurement": "Drug uptake", "setting": "HeLa [3]", "result": 50, "unit": "%"}]}, {"molecule": "H-YKQCHKKGGKKGSG-OH", "values": [{"measurement": "Activity", "setting": "HeLa [2]", "result": "Non-toxic"}, {"measurement": "Drug uptake", "setting": "HeLa [3]", "result": 50, "unit": "%"}]}, {"molecule": "H-GSGKKGGKKHCQKY-OH", "values": [{"measurement": "Activity", "setting": "HeLa [2]", "result": "Non-toxic"}]}, {"molecule": "H-GSGKKGGKKICQKY-OH", "values": [{"measurement": "Activity", "setting": "HeLa [2]", "result": "Non-toxic"}]}]}
